Measurements as given in patent US9617229B2, “Phenylmorpholines and analogues thereof” (Research Triangle Institute, priority 2010, dated 2017).
Where a name gives a salt, the structure may show the parent alone. Read-outs that look alike come from different tables or passages of the source.

Assays:
DAT = DAT (Rattus norvegicus, UniProt P23977); assay: DA release assay (synaptosomes, [3H]MPP+); type: biochemical; design: the supernatants were retained on ice (synaptosomal preparation); from tissue; host or cells: rat caudate synaptosomes; details: for activation at 10 µM: Table 3
Procedure: (§1) Rat caudate (for DA release) or whole brain minus cerebellum and caudate (for NE and 5-HT release), was homogenized in ice-cold 10% sucrose containing 1 μM reserpine. Nomifensine (100 nM) and GBR12935 (100 nM) were added to the sucrose solution for [^3H]5-HT release experiments to block any potential [^3H]5-HT reuptake into NE and DA nerve terminals. For the DA release assay, 100 nM desipramine and 100 nM citalopram were added to block [^3H]MPP^+ uptake into NE and 5-HT nerves. For the NE release assay, 50 nM GBR12935 and 100 nM citalopram were added to block [^3H]MPP^+ uptake into DA and 5-HT nerves. After 12 strokes with a Potter-Elvehjem homogenizer, homogenates were centrifuged at 1000×g for 10 min at 0-4° C. and the supernatants were retained on ice (synaptosomal preparation).
(§2) After incubation to steady state, 850 μl of synaptosomes preloaded with [^3H]ligand were added to 12×75 mm polystyrene test tubes that contained 150 μl test drug in uptake buffer plus 1 mg/ml BSA. After 5 min (^3H]5-HT) or 30 min (NE and DA assays) the release reaction was terminated by dilution with 4 ml wash buffer (10 mM Tris-HCl pH 7.4 containing 0.9% NaCl at 25° C.) followed by rapid vacuum filtration over Whatman GF/B filters using a Brandel Harvester. The filters were rinsed twice with 4 ml wash buffer using the Brandel Harvester, and the retained tritium was counted by a Taurus liquid scintillation counter at 40% efficiency after an overnight extraction in 3 ml Cytoscint (ICN).
(§3) In substrate reversal experiments, statistical significance was determined using the Student's t-test.

5-HT2B receptor [1] = biological target: T1, 5-HT2B receptor (Homo sapiens, UniProt P41595); assay: 5-HT2B activity, agonist; type: cell-based
SERT [2] = biological target: T2, SERT (Rattus norvegicus, UniProt P31652); assay: 5-HT release assay (synaptosomes, [3H]5-HT); type: biochemical; design: the supernatants were retained on ice (synaptosomal preparation); from tissue; host or cells: rat whole brain minus cerebellum and caudate, synaptosomes; details: for activation at 10 µM: Table 3; for 5HT Rel (%): Table 4, % EC50 of release
Procedure: as §1, §2, §3

NET = biological target: T3, NET (Rattus norvegicus, UniProt Q63380); assay: NE release assay (synaptosomes, [3H]MPP+); type: biochemical; details: for activation at 10 µM: Table 3; for NE Rel (%): % EC50 of release
T3 construct: the supernatants were retained on ice (synaptosomal preparation); from tissue; host or cells: rat whole brain minus cerebellum and caudate, synaptosomes
Procedure: as §1, §2, §3

5-HT2B receptor [3] = biological target: T1, 5-HT2B receptor; assay: 5-HT2B activity, antagonist; type: cell-based
SERT [4] = biological target: T2, SERT; assay: 5HT uptake inhibition; type: biochemical

Chain of DAT (P23977 whole entry): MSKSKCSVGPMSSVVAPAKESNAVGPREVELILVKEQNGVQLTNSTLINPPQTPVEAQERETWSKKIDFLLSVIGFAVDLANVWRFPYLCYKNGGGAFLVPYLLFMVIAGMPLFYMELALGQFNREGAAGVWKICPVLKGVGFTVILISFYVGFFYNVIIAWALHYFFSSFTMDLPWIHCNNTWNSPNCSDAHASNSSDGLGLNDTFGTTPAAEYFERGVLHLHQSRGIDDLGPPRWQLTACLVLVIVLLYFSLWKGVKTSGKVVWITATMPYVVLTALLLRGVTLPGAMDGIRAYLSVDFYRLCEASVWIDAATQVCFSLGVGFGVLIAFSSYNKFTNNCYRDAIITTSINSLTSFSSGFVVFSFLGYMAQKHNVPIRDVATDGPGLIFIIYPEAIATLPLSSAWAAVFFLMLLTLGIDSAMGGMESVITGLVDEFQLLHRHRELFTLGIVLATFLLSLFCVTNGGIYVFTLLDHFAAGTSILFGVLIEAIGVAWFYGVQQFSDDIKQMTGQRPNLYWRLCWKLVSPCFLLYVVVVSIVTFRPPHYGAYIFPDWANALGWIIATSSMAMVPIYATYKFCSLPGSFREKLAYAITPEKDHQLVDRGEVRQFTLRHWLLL
T1 sequence (P41595 whole entry): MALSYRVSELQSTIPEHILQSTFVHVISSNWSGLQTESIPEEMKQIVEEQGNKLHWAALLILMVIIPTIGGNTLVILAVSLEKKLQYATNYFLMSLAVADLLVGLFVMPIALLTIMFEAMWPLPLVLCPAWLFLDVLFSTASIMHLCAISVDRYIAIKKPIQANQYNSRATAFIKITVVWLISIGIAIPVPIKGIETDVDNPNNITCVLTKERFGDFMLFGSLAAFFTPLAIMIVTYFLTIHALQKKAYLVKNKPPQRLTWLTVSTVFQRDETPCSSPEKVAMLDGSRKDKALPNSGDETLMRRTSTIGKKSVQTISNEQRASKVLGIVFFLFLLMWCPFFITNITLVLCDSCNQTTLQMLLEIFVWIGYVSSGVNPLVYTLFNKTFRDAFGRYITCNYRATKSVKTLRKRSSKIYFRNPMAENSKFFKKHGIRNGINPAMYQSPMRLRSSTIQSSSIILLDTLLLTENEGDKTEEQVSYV
T2 sequence (P31652 whole entry): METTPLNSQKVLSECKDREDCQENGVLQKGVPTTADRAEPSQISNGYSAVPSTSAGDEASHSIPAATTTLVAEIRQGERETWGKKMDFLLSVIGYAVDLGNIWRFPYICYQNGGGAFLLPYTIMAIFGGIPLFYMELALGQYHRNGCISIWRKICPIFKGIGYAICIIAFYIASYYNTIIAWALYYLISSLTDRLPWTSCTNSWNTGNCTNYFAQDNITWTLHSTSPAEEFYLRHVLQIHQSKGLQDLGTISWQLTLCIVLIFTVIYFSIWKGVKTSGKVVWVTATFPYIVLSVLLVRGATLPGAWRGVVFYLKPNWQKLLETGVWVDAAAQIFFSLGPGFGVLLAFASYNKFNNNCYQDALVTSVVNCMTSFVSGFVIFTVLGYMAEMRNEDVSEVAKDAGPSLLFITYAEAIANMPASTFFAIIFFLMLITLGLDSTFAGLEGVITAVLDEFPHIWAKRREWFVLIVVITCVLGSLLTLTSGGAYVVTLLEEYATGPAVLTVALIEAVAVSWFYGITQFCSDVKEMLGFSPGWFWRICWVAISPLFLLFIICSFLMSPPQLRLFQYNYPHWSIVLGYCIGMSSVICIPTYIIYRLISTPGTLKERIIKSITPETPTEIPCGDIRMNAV
T3 sequence (Q63380 1-617): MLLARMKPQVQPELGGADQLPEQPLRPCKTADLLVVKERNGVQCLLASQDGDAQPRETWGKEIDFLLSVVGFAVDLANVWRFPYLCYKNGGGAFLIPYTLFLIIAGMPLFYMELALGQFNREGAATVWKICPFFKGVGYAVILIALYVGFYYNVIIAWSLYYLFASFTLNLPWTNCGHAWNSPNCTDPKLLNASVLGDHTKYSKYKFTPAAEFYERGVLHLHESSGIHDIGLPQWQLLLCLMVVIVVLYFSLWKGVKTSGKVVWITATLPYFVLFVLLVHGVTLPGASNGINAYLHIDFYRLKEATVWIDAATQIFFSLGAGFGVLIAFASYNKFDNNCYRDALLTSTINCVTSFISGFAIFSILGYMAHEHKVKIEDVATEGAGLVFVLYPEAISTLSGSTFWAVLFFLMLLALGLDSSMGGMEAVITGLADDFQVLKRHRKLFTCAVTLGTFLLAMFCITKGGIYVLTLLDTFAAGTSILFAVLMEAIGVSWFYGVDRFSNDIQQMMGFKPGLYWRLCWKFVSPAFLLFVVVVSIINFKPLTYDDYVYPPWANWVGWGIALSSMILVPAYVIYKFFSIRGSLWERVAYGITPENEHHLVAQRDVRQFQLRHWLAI

## CC1NCCOC1c1ccccc1 (single isomer, unassigned; (-)) [(−)-isomer, reference compound]
DAT
  DA releaser activity (in words): active as a releaser, but is not as potent

## CC1NCCOC1c1cccc(F)c1 (stereo not drawn) [PAL593, 2-(3-fluoro-phenyl)-3-methyl-morpholine]
5-HT2B receptor [1]
  activation at 10 µM: 0%
SERT [2]
  activation at 10 µM: 95%
NET
  activation at 10 µM: 93%
5-HT2B receptor [3]
  inhibition at 1 µM: 1%
DAT
  activation at 10 µM: 100%

## CC1NCCOC1c1ccc(C#N)cc1.CC1NCCOC1c1ccc(C#N)cc1.O=C(O)/C=C/C(=O)O (stereo not drawn) [PAL 772, 3-Methyl-[(4′-Cyano)-2-Phenyl]morpholine (0.5 fumarate)]
SERT [2]
  5HT Rel (%): 53%
NET; Table 4
  NE Rel (%): 100%
DAT; Table 4, % EC50 of release
  DA Rel (%): 0%

## COc1ccc(C2OCCNC2C)cc1.Cl (stereo not drawn) [PAL 751, 3-Methyl-[(4′-Methoxy)-2-Phenyl]morpholine hydrochloride]
SERT [2]
  5HT Rel (%): 64%
NET; Table 4
  NE Rel (%): 84%
DAT; Table 4, % EC50 of release
  DA Rel (%): 50%

## COc1cccc(C2OCCNC2C)c1.COc1cccc(C2OCCNC2C)c1.O=C(O)/C=C/C(=O)O (stereo not drawn) [PAL 823, 3-Methyl-[(3′-Methoxy)-2-Phenyl]morpholine (0.5 fumarate)]
SERT [2]
  5HT Rel (%): 78%
NET; Table 4
  NE Rel (%): 86%
DAT; Table 4, % EC50 of release
  DA Rel (%): 96%

## C[C@H]1CO[C@@H](c2ccccc2)CN1 [PAL 730, (2S,5S)-5-Methyl-2-phenyl-morpholine]
SERT [2]
  EC50: 0.107 µM
NET
  EC50: 0.079 µM
DAT
  EC50: 0.212 µM

## C[C@H]1NCCOC1c1cccc(F)c1 (stereo in doubt) [PAL593, 2-(3-fluoro-phenyl)-3-methyl-morpholine]
SERT [2]
  EC50: 2.56 µM
NET; NE Rel (EC50), Table 4
  EC50: 0.03 µM
DAT
  EC50: 0.043 µM

## C[C@H]1CO[C@@H](c2ccc(F)cc2)CN1 [PAL 903, (2S,5S)-2-(4-Fluoro-phenyl)-5-methyl-morpholine]
DAT; Table 5
  DA Rel (%): 65%

## CC1NCCOC1c1ccc(F)c(Cl)c1.Cl (stereo not drawn) [PAL 821, 3-Methyl-[(3′-Chloro-4′-Fluoro)-2-Phenyl]morpholine hydrochloride]
SERT [2]
  5HT Rel (%): 71%
NET; Table 4
  NE Rel (%): 80%
DAT; Table 4, % EC50 of release
  DA Rel (%): 94%

## Cc1cccc(C2OCCNC2C)c1.Cc1cccc(C2OCCNC2C)c1.O=C(O)/C=C/C(=O)O (stereo not drawn) [PAL 773, 3-Methyl-2-(3′-Tolyl)morpholine (0.5 fumarate)]
SERT [2]
  5HT Rel (%): 82%
NET; Table 4
  NE Rel (%): 80%
DAT; Table 4, % EC50 of release
  DA Rel (%): 98%

## COc1cccc([C@H]2CN[C@@H](C)CO2)c1 [PAL 880, (2S,5S)-2-(3-Methoxy-phenyl)-5-methyl-morpholine]
DAT; Table 5
  DA Rel (%): 56%

## Cc1ccc(C2OCCNC2C)cc1 (stereo not drawn) [PAL 747, 3-Methyl-2-(4′-Tolyl)morpholine fumarate]
DAT; Table 4, % EC50 of release
  DA Rel (%): 91%

## CC1NCCOC1(O)c1ccccc1 (stereo not drawn) [PAL583, 3-methyl-2-phenylmorpholin-2-ol]
5-HT2B receptor [1]
  activation at 10 µM: 0%
SERT [2]
  activation at 10 µM: 0%
NET
  activation at 10 µM: 69%
5-HT2B receptor [3]
  inhibition at 1 µM: 6%
DAT
  activation at 10 µM: 29%

## C[C@H]1CO[C@@H](c2ccc(C(F)(F)F)cc2)CN1 [PAL 910, (2S,5S)-5-Methyl-2-(4-trifluoromethyl-phenyl)-morpholine]
DAT; Table 5
  DA Rel (%): 15%

## CC1NCCOC1(O)c1cccc(F)c1 (stereo not drawn) [PAL587, 2-(3-fluorophenyl)-3-methylmorpholin-2-ol]
5-HT2B receptor [1]
  activation at 10 µM: 0%
SERT [2]
  activation at 10 µM: 6%
NET
  activation at 10 µM: 67%
5-HT2B receptor [3]
  inhibition at 1 µM: 0%
DAT
  activation at 10 µM: 34%

## CC1NCCOC1c1ccc2ccccc2c1 (stereo not drawn) [PAL 704, 3-Methyl-2-(2′-Naphthyl)morpholine hydrochloride]
SERT [4]
  5HT uptake inhibition (in words): 5HT uptake inhibitors
  EC50: 0.105 µM
NET
  NE releaser activity (in words): DA/NE releasers
NET; NE Rel (EC50), Table 4
  EC50: 0.203 µM
DAT
  DA releaser activity (in words): DA/NE releasers
  EC50: 0.111 µM

## C[C@H]1CO[C@@H](c2cccc(C(F)(F)F)c2)CN1 [PAL 895, (2S,5S)-5-Methyl-2-(3-trifluoromethyl-phenyl)-morpholine]
DAT; Table 5
  DA Rel (%): 45%
